In paper PMC6803038 (Angewandte Chemie (International ed. in English), 2019):
Values belong to the molecule of their own block, whether it stands above or below them. Where no end group is shown, it is not given here. [ ]: non-standard residue; d: D form. Nle = CCCC[C@H](N)C(=O)O

Key:
[1] = physiological conditions; cited from earlier work
TEV protease = TEV protease (Tobacco etch virus, UniProt P04517); assay: Fluorescence polarization binding of 5-FAM-conjugated peptides to TEV protease; conditions: cyclic vs linear counterpart
HDAC8 = target: T1, HDAC8 (UniProt Q9BY41 1-377); assay: fluorescence polarisation
T1 sequence (looked up): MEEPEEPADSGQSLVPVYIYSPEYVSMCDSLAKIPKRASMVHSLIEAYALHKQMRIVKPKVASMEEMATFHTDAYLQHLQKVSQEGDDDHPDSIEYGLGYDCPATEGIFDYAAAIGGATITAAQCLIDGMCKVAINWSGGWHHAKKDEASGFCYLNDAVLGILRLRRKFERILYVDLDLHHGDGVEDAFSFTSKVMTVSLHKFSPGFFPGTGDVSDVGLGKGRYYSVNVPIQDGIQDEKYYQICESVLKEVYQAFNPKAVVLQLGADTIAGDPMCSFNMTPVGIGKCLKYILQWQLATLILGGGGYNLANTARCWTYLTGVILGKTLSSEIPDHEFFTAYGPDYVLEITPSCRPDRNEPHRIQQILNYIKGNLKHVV

Chain of TEV protease (P04517 2038-2279): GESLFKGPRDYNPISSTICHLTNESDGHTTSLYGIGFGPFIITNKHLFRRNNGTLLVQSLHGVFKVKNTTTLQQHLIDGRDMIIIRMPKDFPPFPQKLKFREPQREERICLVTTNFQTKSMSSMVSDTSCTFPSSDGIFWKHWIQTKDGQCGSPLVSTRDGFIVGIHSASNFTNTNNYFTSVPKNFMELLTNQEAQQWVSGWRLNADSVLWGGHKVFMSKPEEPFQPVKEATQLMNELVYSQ

Molecule: C=CC(=O)NCCCC[C@H](N)C(=O)O [AcrK, N^ε-acryloyl-lysine]
second-order rate constant of reaction with a thiol [1]: 0.004 M⁻¹ s⁻¹

Molecule: CC[C@H](C)[C@@H]1NC(=O)[C@H](CC(C)C)NC(=O)[C@H](Cc2ccc(O)cc2)NC(=O)[C@H](CC(=O)O)NC(=O)[C@H](CCCNC(=N)N)NC(=O)[C@H](Cc2c[nH]c3ccccc23)NC(=O)[C@@H](N)CSCCC(=O)NCCCC[C@@H](C(=O)O)NC1=O [CycTev1, CWRDYLIX]
better binding of cyclic peptide than its linear counterpart (TEV protease): > 6 fold

Molecule: N=C(N)NCCC[C@@H]1NC(=O)[C@H](Cc2c[nH]cn2)NC(=O)[C@H](CO)NC(=O)[C@H](Cc2ccccc2)NC(=O)[C@H](Cc2c[nH]c3ccccc23)NC(=O)[C@H](CCC(N)=O)NC(=O)[C@@H](N)CSCCC(=O)NCCCC[C@@H](C(=O)O)NC1=O [CycTev2, CQWFSHRX]
better binding of cyclic peptide than its linear counterpart (TEV protease): > 6 fold

Kd (HDAC8): > 50 µM
B1: 5-FAM-conjugated LinH8a (peptide)
chain: CQSLWMNK
modifications: also: 5-FAM conjugated, site not given here

Kd (HDAC8): 31 ± 7 µM
B2: 5-FAM-conjugated LinH8a’ (peptide)
chain: CQSLWMN[Nle]
modifications: also: 5-FAM conjugated, site not given here
